Molecules are shown by their SMILES.

The nature of series [1]: Drug related lethality is percent animals in treated groups dying prior to first tumor related death in untreated groups measured in BDF1 mice after iv administration at 20 mg/kg dose 3 days after tumor challenge. The format is toxicity, organism-based. Also on record: dose 20 mg/kg, route intravenous. The following applies: BDF1, mus sp., in vivo, read-out: Lethality.
A short description of series [2]: Drug related lethality is percent animals in treated groups dying prior to first tumor related death in untreated groups measured in BDF1 mice after iv administration at 10 mg/kg dose 3 days after tumor challenge. The format is toxicity, organism-based. Also on record: dose 10 mg/kg, route intravenous. The following applies: BDF1, mus sp., in vivo, read-out: Lethality.

Series [3] is described as follows: Drug related lethality is percent animals in treated groups dying prior to first tumor related death in untreated groups measured in BDF1 mice after iv administration at 18 mg/kg dose 3 days after tumor challenge. Further details: dose 18 mg/kg, route intravenous. In kind it is toxicity, organism-based. The following applies: BDF1, mus sp., in vivo, read-out: Lethality.

The subject of series [4] is Mus sp. The experiment in a line: In vivo activity measured against 3LL metastasis in BDF1 mice after iv administration at 20 mg/kg dose, dosing on days 3 after tumor challenge. The format is functional.
Series [5] has as its system Mus sp. The experiment in a line: In vivo activity measured against 3LL metastasis in BDF1 mice after iv administration at 2.5 mg/kg dose, dosing on days 3 after tumor challenge. In kind it is functional.
The nature of series [6]: Drug related lethality is percent animals in treated groups dying prior to first tumor related death in untreated groups measured in BDF1 mice after iv administration at 2.5 mg/kg dose 3 days after tumor challenge. Further details: dose 2.5 mg/kg, route intravenous. The following applies: BDF1, mus sp., in vivo, read-out: Lethality. The format is toxicity, organism-based.

For series [7], the system named is Mus sp. Briefly: In vivo activity measured against 3LL metastasis in BDF1 mice after iv administration at 5 mg/kg dose, dosing on days 3 after tumor challenge. The format is functional.
A short description of series [8]: Drug related lethality is percent animals in treated groups dying prior to first tumor related death in untreated groups measured in BDF1 mice after iv administration at 5 mg/kg dose 3 days after tumor challenge. The format is toxicity, organism-based. Also on record: dose 5 mg/kg, route intravenous. Conditions: BDF1, mus sp., in vivo, read-out: Lethality.
Series [9] has as its system Mus sp. Briefly: In vivo activity measured against 3LL metastasis in BDF1 mice after iv administration at 25 mg/kg dose, dosing on days 3 after tumor challenge. The format is functional.
Series [10] is described as follows: Drug related lethality is percent animals in treated groups dying prior to first tumor related death in untreated groups measured in BDF1 mice after iv administration at 15 mg/kg dose 3 days after tumor challenge. Also on record: dose 15 mg/kg, route intravenous. Conditions: BDF1, mus sp., in vivo, read-out: Lethality. In kind it is toxicity, organism-based.
For series [11], the system named is Mus sp. The experiment in a line: In vivo activity against 3LL metastasis in BDF1 mice after iv administration at 18 mg/kg dose, dosing on days 3 after tumor challenge. In kind it is functional.
The subject of series [12] is Mus sp. The experiment in a line: In vivo activity against 3LL metastasis in BDF1 mice after iv administration at 10 mg/kg dose, dosing on days 3 after tumor challenge. The format is functional.
Series [13] has as its system Mus sp. Briefly: In vivo activity measured against 3LL metastasis in BDF1 mice after iv administration at 15 mg/kg dose, dosing on days 3 after tumor challenge. The format is functional.
The nature of series [14]: Drug related lethality is percent animals in treated groups dying prior to first tumor related death in untreated groups measured in BDF1 mice after iv administration at 30 mg/kg dose 3 days after tumor challenge. In kind it is toxicity, organism-based. Also on record: dose 30 mg/kg, route intravenous. Conditions: BDF1, mus sp., in vivo, read-out: Lethality.
Series [15] in a line: Drug related lethality is percent animals in treated groups dying prior to first tumor related death in untreated groups measured in BDF1 mice after iv administration at 25 mg/kg dose 3 days after tumor challenge. The format is toxicity, organism-based. Further details: dose 25 mg/kg, route intravenous. Conditions: BDF1, mus sp., in vivo, read-out: Lethality.
Series [16] is described as follows: Drug related lethality is percent animals in treated groups dying prior to first tumor related death in untreated groups measured in BDF1 mice after ip administration at 32 mg/kg dose days 3,7,11 after tumor challenge. The following applies: BDF1, mus sp., in vivo, read-out: Lethality. Further details: dose 32 mg/kg, route intraperitoneal. The format is toxicity, organism-based.

Series [17] concerns Mus sp. The experiment in a line: In vivo activity measured against 3LL metastasis in BDF1 mice after ip administration at 16 mg/kg dose, dosing on days 3,7,11 after tumor challenge. The following applies: route intraperitoneal. In kind it is functional.
The nature of series [18]: Drug related lethality is percent animals in treated groups dying prior to first tumor related death in untreated groups measured in BDF1 mice after ip administration at 8 mg/kg dose days 3,7,11 after tumor challenge. The format is toxicity, organism-based. Further details: dose 8 mg/kg, route intraperitoneal. Conditions: BDF1, mus sp., in vivo, read-out: Lethality.
Series [19] in a line: Drug related lethality is percent animals in treated groups dying prior to first tumor related death in untreated groups measured in BDF1 mice after ip administration at 16 mg/kg dose days 3,7,11 after tumor challenge. In kind it is toxicity, organism-based. Also on record: dose 16 mg/kg, route intraperitoneal. Conditions: BDF1, mus sp., in vivo, read-out: Lethality.
Series [20] has as its system Mus sp. The experiment in a line: In vivo activity measured against 3LL metastasis in BDF1 mice after ip administration at 32 mg/kg dose, dosing on days 3,7,11 after tumor challenge. In kind it is functional. Conditions: route intraperitoneal.
Series [21] relates to Mus sp. Briefly: In vivo activity measured against 3LL metastasis in BDF1 mice after ip administration at 8 mg/kg dose, dosing on days 3,7,11 after tumor challenge. In kind it is functional. The following applies: route intraperitoneal.
Series [22] in a line: Drug related lethality is percent animals in treated groups dying prior to first tumor related death in untreated groups measured in BDF1 mice after ip administration at 300 mg/kg dose days 3 after tumor challenge. The following applies: BDF1, mus sp., in vivo.
Series [23] is described as follows: Drug related lethality is percent animals in treated groups dying prior to first tumor related death in untreated groups measured in BDF1 mice after ip administration at 400 mg/kg dose days 3 after tumor challenge. The following applies: BDF1, mus sp., in vivo.

Take `COc1cccc2c1C(=O)c1c(O)c3c(c(O)c1C2=O)C[C@@](O)(C(=O)CO)C[C@@H]3O[C@H]1C[C@H](N)[C@H](O)[C@H](C)O1` [DOXORUBICIN]: the mortality at 72 h came to 15% in series [1]; 0% in series [2]; 0% in series [3]; 0% in [6]; 0% in series [8]; 21% in series [10]. Further, the values for the mortality at 72 h in [14] and in series [15] were 100% and 72%, respectively. For the same compound, the T/C in the series with Mus sp. [4] was 189%; with Mus sp. [5] it was 120%; with Mus sp. [7], 115%; in the series on Mus sp. [9], 197%; with Mus sp. [11], 191%; in the series on Mus sp. [12] it was 137%. Besides, in the series with Mus sp. [13], the T/C is 215%.

Consider `COc1cc([C@@H]2c3cc4c(cc3[C@@H](O[C@@H]3O[C@@H]5CO[C@@H](C)O[C@H]5[C@H](O)[C@H]3O)[C@H]3COC(=O)[C@H]23)OCO4)cc(OC)c1O` [ETOPOSIDE], for which the mortality in series [16] is 7%; in [18], 0%; in series [19], 0%. For the same compound, the T/C in the series with Mus sp. [17] is 128%; with Mus sp. [20] it was 130%; with Mus sp. [21] it was 118%.

Turning to `O=P1(N(CCCl)CCCl)NCCCO1` (stereo not drawn) [CYCLOPHOSPHAMIDE ANHYDROUS], the mortality in [22] turned out to be 0%; in series [23], 14%.

As usually defined, the T/C is the result in the treated group divided by that in the control group, in per cent.
